Measurements from patent US7125881B2, “Use of pyrimidine—or triazine—2 carbonitiles for treating diseases associated with cysteine prostease activity and novel pyrimidine-2-carbonitile derivatives” (AstraZeneca AB, priority 2002, dated 2006).
Structures can show the parent of a compound that is named as a salt.

| Compound | melting point [°C] |
| --- | --- |
| COc1c(Nc2ccc(Cl)cc2)nc(C#N)nc1N(C)C [Example 48, 4-[(4-Chlorophenyl)amino]-6-(dimethylamino)5-methoxypyrimidine-2-carbonitrile] | 173 |
| N#Cc1nc(Nc2ccc(Cl)cc2)c(N)c(N2CCOCC2)n1 [Example 52, 5-Amino-4-[(4-chlorophenyl)amino]-6-morpholin-4-ylpyrimidine-2-carbonitrile] | 253 to 254 |
| CCNc1nc(C#N)nc(Nc2ccc(Cl)cc2)c1N [Example 53, 5-Amino-4[(4-Chlorophenyl)amino]-6(ethylamino)pyrimidine-2-carbonitrile] | 211 to 212 |

The remaining lines, values ahead:

| melting point [°C] | Compound |
| --- | --- |
| 230 | COc1c(Nc2ccc(Cl)cc2)nc(C#N)nc1N1CCNCC1 (as salt: trifluoroacetate) [Example 44, 4-[(4-Chlorophenyl)amino]-5-methoxy-6-piperazin-1-ylpyrimidine-2-carbonitrile] |
| 345 to 347 | COc1c(Nc2ccc(Cl)cc2)nc(C#N)nc1N1CC[C@H](N)C1 (as salt: trifluoroacetate) [Example 46, 4-[(3S)-3-Aminopyrrolidin-1-yl]-6-[(4-chlorophenyl)amino]-5-methoxypyrimidine-2-carbonitrile] |
| 210 to 212 | COc1c(Nc2ccc(Cl)cc2)nc(C#N)nc1N1CCN(CCCN(C)C)CC1 (as salt: trifluoroacetate) [Example 47, 4-[(4-Chlorophenyl)amino]-6-{4-[3-(dimethylamino)propyl]piperazin-1-yl}-5-methoxypyrimidine-2-carbonitrile] |
| 176 | COc1c(Nc2ccc(Cl)cc2)nc(C#N)nc1N1CCOCC1 [Example 45, 4-[(4-Chlorophenyl)amino]-5-methoxy-6-morpholin-4-ylpyrimidine-2-carbonitrile] |
| 244 | COc1c(Nc2ccc(Cl)cc2)nc(C#N)nc1N1CCNC(=O)C1 [Example 49, 4-[(4-Chlorophenyl)amino]-5-methoxy-6(3-oxopiperazin-1-yl)pyrimidine-2-carbonitrile] |
